According to US10370352B2, “Cyclobutyl-imidazolidinone compounds” (Eli Lilly and Company, priority 2017, dated 2019):

What was measured:
[1] = target: recombinant human ASK1 (hASK1) catalytic domain (Homo sapiens (Human), UniProt Q99683); experiment: ASK1 enzymatic assay (ADP-Glo Kinase Assay); assay type: biochemical; conditions: for IC50: hASK1 0.25 nM, MKK6 300 nM, ATP 100 μM, mean ± standard deviation; for Efficacy: hASK1 enzymatic assay, standard benzamide ASK1 inhibitor = 100% inhibition, DMSO = 0%
Text: The purpose of this assay is to determine the effect of ASK1 inhibitors on the production of ADP by ASK1. The recombinant human ASK1 (hASK1) catalytic domain tagged with Glutathione S-transferase is used, and histidine-tagged full-length human MAP kinase kinase 6 (MKK6) and ATP are the substrate and cofactor, respectively.
The assay is done using an ADP-Glo™ Kinase Assay Kit (Promega, Catalog #V9102) according to the manufacturer's protocol with the following modifications. Briefly, hASK1 (0.25 nM) and MKK6 (300 nM) in a buffer (10 mM MOPS pH 7.0; 10 mM Mg-Acetate; 1 mM DTT; 0.025% NP-40; 0.05% BSA; 1.5% glycerol) are incubated with ASK1 inhibitors at varying concentrations ranging from 10.00 μM to 0.17 nM for 15 minutes, followed by incubation with ATP (100 μM) for 30 minutes at room temperature. ADP-Glo™ Reagent is added to terminate the kinase reaction and deplete the remaining ATP. The Kinase Detection Reagent is then added to convert ADP to ATP. The newly synthesized ATP is measured using a luciferase/luciferin reaction, and the luminescence determined by Envision (PerkinElmer). The luminescence intensities are analyzed by GeneData, and fit to a 4 parameter dose response-inhibitor logistics curve to determine IC50 values, using the effects of 5-(4-cyclopropyl-1H-imidazol-1-yl)-2-fluoro-4-methyl-N-{6-[4-(propan-2-yl)-4H-1,2,4-triazol-3-yl]pyridin-2-yl}benzamide as a standard and DMSO vehicle for 100% and 0% inhibition, respectively.

[2] = target: human ASK1 (Homo sapiens (Human), UniProt Q99683); experiment: ASK1 autophosphorylation (Thr838) assay in HEK293 cells overexpressing human ASK1; assay type: cell-based; conditions: for IC50: H2O2-stimulated (1 mM, 10 min) ASK1 autophosphorylation at Thr838, HEK293 cells, HTRF, mean ± standard deviation, read-out: HEK pASK1 IC50; for Efficacy: HEK pASK1 assay, standard benzamide ASK1 inhibitor = 100% inhibition, DMSO = 0%
Chain of human ASK1 (Q99683 whole entry): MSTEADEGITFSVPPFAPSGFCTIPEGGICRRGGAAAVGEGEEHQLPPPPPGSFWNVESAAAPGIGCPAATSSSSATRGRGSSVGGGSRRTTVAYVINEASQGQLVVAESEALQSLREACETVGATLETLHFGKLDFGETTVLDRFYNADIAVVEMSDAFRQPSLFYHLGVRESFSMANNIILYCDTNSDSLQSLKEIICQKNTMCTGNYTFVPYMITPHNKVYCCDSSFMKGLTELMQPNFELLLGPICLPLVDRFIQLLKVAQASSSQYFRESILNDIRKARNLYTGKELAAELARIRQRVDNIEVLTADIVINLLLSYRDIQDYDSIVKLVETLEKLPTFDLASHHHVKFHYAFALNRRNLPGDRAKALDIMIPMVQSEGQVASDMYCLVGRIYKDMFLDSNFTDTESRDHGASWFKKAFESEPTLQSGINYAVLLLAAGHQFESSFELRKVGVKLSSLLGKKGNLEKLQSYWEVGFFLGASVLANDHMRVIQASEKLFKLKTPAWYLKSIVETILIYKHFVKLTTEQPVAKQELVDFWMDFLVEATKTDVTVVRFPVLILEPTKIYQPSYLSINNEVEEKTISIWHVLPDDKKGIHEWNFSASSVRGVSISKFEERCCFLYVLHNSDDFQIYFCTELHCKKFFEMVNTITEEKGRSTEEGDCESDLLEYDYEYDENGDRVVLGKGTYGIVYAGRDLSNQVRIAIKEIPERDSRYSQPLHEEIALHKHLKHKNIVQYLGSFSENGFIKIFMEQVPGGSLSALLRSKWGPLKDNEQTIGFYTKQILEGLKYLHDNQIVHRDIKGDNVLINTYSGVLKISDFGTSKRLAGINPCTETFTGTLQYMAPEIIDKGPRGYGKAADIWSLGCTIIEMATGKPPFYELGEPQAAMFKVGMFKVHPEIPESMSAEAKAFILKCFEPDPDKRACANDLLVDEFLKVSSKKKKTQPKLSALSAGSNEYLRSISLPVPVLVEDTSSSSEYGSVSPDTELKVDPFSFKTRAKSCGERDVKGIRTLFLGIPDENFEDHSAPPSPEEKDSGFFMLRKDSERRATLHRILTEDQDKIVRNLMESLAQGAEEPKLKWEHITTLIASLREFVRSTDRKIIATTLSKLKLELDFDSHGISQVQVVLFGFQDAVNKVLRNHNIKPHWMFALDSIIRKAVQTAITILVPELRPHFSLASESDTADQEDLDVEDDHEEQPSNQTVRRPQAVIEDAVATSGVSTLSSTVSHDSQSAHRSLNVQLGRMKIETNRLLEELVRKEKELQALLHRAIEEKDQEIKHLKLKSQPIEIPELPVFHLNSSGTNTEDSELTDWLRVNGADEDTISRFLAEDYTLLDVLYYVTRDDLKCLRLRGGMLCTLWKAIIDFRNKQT

Chain of recombinant human ASK1 (hASK1) catalytic domain (Q99683 680-938): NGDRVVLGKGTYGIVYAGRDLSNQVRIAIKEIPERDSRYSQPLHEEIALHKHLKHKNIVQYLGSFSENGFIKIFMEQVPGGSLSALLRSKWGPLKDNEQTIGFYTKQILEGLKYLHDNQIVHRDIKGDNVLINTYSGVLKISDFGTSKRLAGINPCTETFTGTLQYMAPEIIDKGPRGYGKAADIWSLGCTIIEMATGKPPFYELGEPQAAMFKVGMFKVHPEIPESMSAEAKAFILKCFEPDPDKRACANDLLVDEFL

Row | IC50 [1] | Efficacy [1] | IC50 [2] | Efficacy [2] | Compound
1 | 2.8 ± 0.97 nM | 100% | 126 nM | 98.5% | CC(C)n1cnnc1-c1cccc(N2CCN(C3CC(n4cnc(C(F)(F)F)c4)C3)C2=O)n1 (stereo not drawn) [Example 3, 1-(6-(4-Isopropyl-4H-1,2,4-triazol-3-yl)pyridin-2-yl)-3-(3-(4-(trifluoromethyl)-1H-imidazol-1-yl)cyclobutyl)imidazolidin-2-one]
2 | 2.56 ± 0.68 nM | 100% | 108 nM | 99% | CC(C)n1cnnc1-c1cccc(N2CCN(C3CC(n4cnc(C5CC5)n4)C3)C2=O)n1 (stereo not drawn) [Example 4, 1-[3-(3-Cyclopropyl-1,2,4-triazol-1-yl)cyclobutyl]-3-[6-(4-isopropyl-1,2,4-triazol-3-yl)-2-pyridyl]imidazolidin-2-one]
3 | 1.84 ± 0.64 nM | 100% |  |  | CC(C)n1cnnc1-c1cccc(N2CCN(C3CC(n4cnc(C(C)(C)C)c4)C3)C2=O)n1 (stereo not drawn) [Example 5, 1-(3-(4-(tert-Butyl)-1H-imidazol-1-yl)cyclobutyl)-3-(6-(4-isopropyl-4H-1,2,4-triazol-3-yl)pyridin-2-yl)imidazolidin-2-one]

Second part, the molecule before the results:

Row | Compound | IC50 [1] | Efficacy [1] | IC50 [2] | Efficacy [2]
4 | CC(C)n1cnnc1-c1cccc(N2CCN(C3CC(n4cnc(C5CC5)c4)C3)C2=O)n1 (single isomer, unassigned) [Example 2, 1-[3-(4-Cyclopropylimidazol-1-yl)cyclobutyl]-3-[6-(4-isopropyl-1,2,4-triazol-3-yl)-2-pyridyl]imidazolidin-2-one] | 1.47 ± 0.6 nM | 100% | 48.8 ± 19.1 nM | 105%
5 | Cc1ccc(C2CC(N3CCN(c4cccc(-c5nncn5C(C)C)n4)C3=O)C2)cn1 (single isomer, unassigned) [Example 8, 1-[6-(4-Isopropyl-1,2,4-triazol-3-yl)-2-pyridyl]-3-[3-(6-methyl-3-pyridyl)cyclobutyl]imidazolidin-2-one] | 5.26 ± 0.72 nM | 100% | 235 nM | 97.5%
6 | Cc1ncc(C2CC(N3CCN(c4cccc(-c5nncn5C(C)C)n4)C3=O)C2)cn1 (single isomer, unassigned) [Example 9, 1-(6-(4-Isopropyl-4H-1,2,4-triazol-3-yl)pyridin-2-yl)-3-(3-(2-methylpyrimidin-5-yl)cyclobutyl)imidazolidin-2-one] | 6.21 ± 4.18 nM | 100% |  | 
7 | CC(C)n1cc(C2CC(N3CCN(c4cccc(-c5nncn5C(C)C)n4)C3=O)C2)cn1 (stereo not drawn) [Example 6, 1-[3-(1-Isopropylpyrazol-4-yl)cyclobutyl]-3-[6-(4-isopropyl-1,2,4-triazol-3-yl)-2-pyridyl]imidazolidin-2-one] | 2.17 ± 0.45 nM | 100% | 27.1 nM | 102%
